Results as given in patent US8283358B2, “N-sulfonamido polycyclic pyrazolyl compounds” (Elan Pharmaceuticals, Inc., priority 2008, dated 2012).

Target: T1, gamma-secretase (partially purified extract of IMR-32 cell membranes; substrate MBP-C125 Swe fusion protein, cleavage at the Aβ40 site) (Homo sapiens, UniProt P49768)
T1 construct: a partially purified extract of IMR-32 cell membranes as the gamma-secretase enzyme preparation; endogenous in cells; host or cells: IMR-32 cell membranes, partially purified extract
Test: Gamma-secretase APP enzyme assay (Example A)
Type: biochemical
Details: class symbols; assay described in Example A; read-out: γAPP IC50
Text: The gamma-secretase APP enzyme assay was designed to measure the specific proteolytic cleavage of an APP substrate (MBP-C125 Swe fusion protein) at the Aβ40 site. […] This assay involved two steps beginning with the enzymatic reaction generating a cleavage product that was captured with an immobilized antibody specific for the neo-epitope Aβ40 site. The captured cleavage product was then detected in a sandwich ELISA assay with a biotinylated reporter antibody that is specific to Aβ(17-28). Streptavidin-linked alkaline phosphatase was then added that would generate a fluorescent signal proportional to the amount of cleavage product.
This warmed solution of BigCHAPS (N,N-Bis(3-D-gluconamidopropyl)cholamide) detergent was used to dissolve Brain Extract Type-V (lipid containing a minimum of 40% phosphatidylethanolamine) from Sigma (St. Louis, Mo.) to a concentration of 8 mg/ml. This solution containing BigCHAPS and lipid at 8 mg/ml is then diluted to 0.53 mg/ml lipid with a pre-warmed solution of Hepes and sodium chloride.
Gamma-secretase was then added to a 96-well micro-titre plate and then incubated with various concentrations of inhibitor for 30 minutes at 37° C. MBPC125 substrate was then added to initiate the reaction that would run for two hours at 37° C. The reaction was quenched with the addition of SDS to a final concentration of 0.1% and then 100 μl of the reaction mixture was transferred to a capture ELISA plate and incubated overnight at 4° C. Detection of the cleavage product was performed using a standard sandwich ELISA assay and quantified using a six point standard curve.

SMILES	IC50 [nM]
O=S(=O)(c1ccc(C(F)(F)F)cc1)N1C2Cc3[nH]ncc3C1c1ccccc12 (racemic) [compound 52]	< 100
O=S(=O)(c1ccc(C(F)(F)F)cc1)N1C2C=C(c3ccc(F)cc3)C1c1cn[nH]c1C2 (racemic) [compound 59]	100 to 499
O=S(=O)(c1ccc(C(F)(F)F)cc1)N1C2Cc3[nH]ncc3C1c1ccccc12 (racemic) [compound 73]	< 100
O=S(=O)(c1ccc(C(F)(F)F)cc1)N1C2c3ccccc3C1C(F)(F)c1[nH]ncc12 (racemic) [compound 74]	< 100
Cc1cc(C2CC3Cc4[nH]ncc4C(C2)N3S(=O)(=O)c2ccc(Cl)cc2)on1 (racemic) [compound 76]	< 100
Cc1nc(C2CC3Cc4[nH]ncc4C(C2)N3S(=O)(=O)c2ccc(C(F)(F)F)cc2)n(C)n1 (racemic) [compound 80]	500 to 999
Cc1nc(C2CC3Cc4[nH]ncc4C(C2)N3S(=O)(=O)c2ccc(C(F)(F)F)cc2)n[nH]1 (racemic) [compound 85]	> 1000
O=S(=O)(c1ccc(C(F)(F)F)cc1)N1C2Cc3[nH]ncc3C1c1cc3c(cc12)OCO3 (racemic) [compound 91]	< 100
O=S(=O)(c1ccc(Cl)cc1)N1C2Cc3[nH]ncc3C1CC(c1c[nH]nn1)C2 (racemic) [compound 93]	< 100
O=S(=O)(c1ccc(C(F)(F)F)cc1)N1C2Cc3[nH]ncc3C1c1cccc(F)c12 (racemic) [compound 97]	< 100
O=S(=O)(c1ccc(C(F)(F)F)nc1)N1C2Cc3n[nH]cc3C1c1cc(F)c(F)cc12 (racemic) [compound 105]	< 100
O=S(=O)(c1ccc(C(F)(F)F)cc1)N1C2Cc3[nH]ncc3C1CC(c1nnn[nH]1)C2 (racemic) [compound 126]	> 1000
Cn1nncc1C1CC2Cc3[nH]ncc3C(C1)N2S(=O)(=O)c1ccc(Cl)cc1 (racemic) [compound 136]	< 100
O=C1COCCN1c1ccc(C2CC3Cc4[nH]ncc4C(C2)N3S(=O)(=O)c2ccc(C(F)(F)F)cc2)cc1 (racemic) [compound 143]	500 to 999
O=C(O)COCCNc1ccc(C2CC3Cc4[nH]ncc4C(C2)N3S(=O)(=O)c2ccc(C(F)(F)F)cc2)cc1 (racemic) [compound 145]	< 100
O=S(=O)(c1ccc(C(F)(F)F)cc1)N1C2Cc3[nH]ncc3C1CC(c1ccc(-n3cncn3)cc1)C2 (racemic) [compound 147]	100 to 499

SMILES	IC50 [nM]
Cc1cc(F)cc2c1C1c3c[nH]nc3CC2N1S(=O)(=O)c1ccc(C(F)(F)F)nc1 (racemic) [compound 151]	< 100
CC(=O)Nc1ccc(C2CC3Cc4[nH]ncc4C(C2)N3S(=O)(=O)c2ccc(C(F)(F)F)cc2)cc1 (racemic) [compound 152]	< 100
O=C1CCN1c1ccc(C2CC3Cc4[nH]ncc4C(C2)N3S(=O)(=O)c2ccc(C(F)(F)F)cc2)cc1 (racemic) [compound 153]	< 100
CC(=O)c1ccc(C2CC3Cc4[nH]ncc4C(C2)N3S(=O)(=O)c2ccc(C(F)(F)F)cc2)cc1 (racemic) [compound 154]	100 to 499
O=S(=O)(c1ccc(C(F)(F)F)cc1)N1C2Cc3[nH]ncc3C1c1cc(C(F)(F)F)ccc12 (racemic) [compound 155]	< 100
O=S(=O)(c1ccc(C(F)(F)F)cc1)N1C2Cc3[nH]ncc3C1c1ccc(C(F)(F)F)cc12 (racemic) [compound 156]	< 100
O=S(=O)(c1ccc(C(F)(F)F)cc1)N1C2Cc3[nH]ncc3C1Cc1ccccc12 (racemic) [compound 163]	< 100
O=S(=O)(c1ccc(C(F)(F)F)cc1)N1C2Cc3[nH]ncc3C1c1cccc(-c3cccc(C(F)(F)F)c3)c1C2 (racemic) [compound 178]	< 100
O=S(=O)(c1ccc(C(F)(F)F)cc1)N1C2Cc3[nH]ncc3C1c1cccnc12 (single isomer, unassigned) [compound 99]	> 1000
O=S(=O)(c1ccc(C(F)(F)F)cc1)N1C2Cc3[nH]ncc3C1c1ncccc12 (single isomer, unassigned) [compound 101]	< 100
O=S(=O)(c1ccc(C(F)(F)F)cc1)N1C2Cc3[nH]ncc3C1c1ncccc12 (single isomer, unassigned) [compound 102]	500 to 999
O=S(=O)(c1ccc(C(F)(F)F)nc1)N1C2Cc3n[nH]cc3C1c1cc(F)c(F)cc12 (single isomer, unassigned) [compound 110]	> 1000
O=S(=O)(c1ccc(C(F)(F)F)nc1)N1C2Cc3n[nH]cc3C1c1cc(F)c(F)cc12 (single isomer, unassigned) [compound 111]	< 100
Cn1cc(C2CC3Cc4[nH]ncc4C(C2)N3S(=O)(=O)c2ccc(Cl)cc2)nn1 (single isomer, unassigned) [compound 137]	> 1000
Cn1cc(C2CC3Cc4[nH]ncc4C(C2)N3S(=O)(=O)c2ccc(Cl)cc2)nn1 (single isomer, unassigned) [compound 138]	500 to 999

Next, values leading:

IC50 [nM]	SMILES
< 100	O=S(=O)(c1ccc(C(F)(F)F)nc1)N1C2c3cc(F)c(F)cc3C1C(F)(F)c1[nH]ncc12 (racemic) [compound 157]
< 100	O=S(=O)(c1ccc(C(F)(F)F)cc1)N1C2Cc3[nH]ncc3C1c1cccc(-c3ccc(F)cc3)c1C2 (racemic) [compound 162]
< 100	O=S(=O)(c1ccc(C(F)(F)F)cc1)N1C2Cc3ccccc3C1c1cn[nH]c1C2 (racemic) [compound 164]
< 100	O=S(=O)(c1ccc(C(F)(F)F)cc1)N1C2Cc3c(-c4ccc(F)cc4)cccc3C1Cc1[nH]ncc12 (racemic) [compound 165]
< 100	O=S(=O)(c1ccc(C(F)(F)F)nc1)N1C2Cc3[nH]ncc3C1c1cc(F)ccc12 (racemic) [compound 176]
< 100	O=S(=O)(c1ccc(C(F)(F)F)cc1)N1C2Cc3cccc(F)c3C1Cc1n[nH]cc12 (racemic) [compound 181]
< 100	O=S(=O)(c1ccc(C(F)(F)F)cc1)N1C2Cc3cccc(F)c3C1c1cn[nH]c1C2 (racemic) [compound 182]
> 1000	COC(=O)c1ccc2c(c1)C1c3cn[nH]c3CC2N1S(=O)(=O)c1ccc(C(F)(F)F)nc1 (racemic) [compound 194]
< 100	O=S(=O)(c1ccc(Cl)cc1)N1C2Cc3[nH]ncc3C1c1c(F)cccc12 (racemic) [compound 209]
< 100	O=S(=O)(c1ccc(F)cc1)N1C2Cc3[nH]ncc3C1c1c(F)cccc12 (racemic) [compound 210]
< 100	O=S(=O)(c1ccc(C(F)(F)F)cn1)N1C2Cc3[nH]ncc3C1c1c(F)cccc12 (racemic) [compound 211]
< 100	O=S(=O)(c1ccc(C(F)(F)F)nc1)N1C2Cc3[nH]ncc3C1c1cc(Cl)ccc12 (racemic) [compound 219]
< 100	COC(=O)c1cccc2c1C1Cc3[nH]ncc3C2N1S(=O)(=O)c1ccc(C(F)(F)F)nc1 (racemic) [compound 220]
< 100	O=S(=O)(c1ccc(C(F)(F)F)nc1)N1C2Cc3[nH]ncc3C1c1cc(O)ccc12 (racemic) [compound 225]
< 100	COC(=O)c1cccc2c1C1Cc3[nH]ncc3C2N1S(=O)(=O)C1=CC=C(C(F)(F)F)NC1 (racemic) [compound 253]
< 100	O=S(=O)(c1ccc(C(F)(F)F)nc1)N1C2Cc3[nH]ncc3C1c1cccc(CF)c12 (racemic) [compound 257]
< 100	O=C1c2[nH]ncc2C2c3cccc(Cl)c3C1N2S(=O)(=O)c1ccc(C(F)(F)F)nc1 (racemic) [compound 264]
< 100	O=S(=O)(c1ccc(C(F)(F)F)nc1)N1C2Cc3[nH]ncc3C1c1cccc(-c3ccc(F)cc3)c12 (racemic) [compound 266]
< 100	O=S(=O)(c1ccc(C(F)(F)F)nc1)N1C2Cc3[nH]ncc3C1c1cccc(C3CC3)c12 (racemic) [compound 270]
< 100	O=S(=O)(c1ccc(C(F)(F)F)nc1)N1C2Cc3[nH]ncc3C1c1c(C3CC3)cccc12 (racemic) [compound 274]

Same assay, conditions: numeric bounds given instead of class symbols; assay described in Example A; read-out: γAPP IC50

IC50 [nM]	SMILES
> 100	O=c1oc2cc3c(cc2o1)C1c2cn[nH]c2CC3N1S(=O)(=O)c1ccc(C(F)(F)F)cc1 (racemic) [compound 109]
> 100	O=S(=O)(c1ccc(C(F)(F)F)nc1)N1C2Cc3[nH]ncc3C1c1c(-c3ccc(F)cc3)cccc12 (racemic) [compound 273]

Same assay, conditions: γAPP IC50 (nM), class symbols; assay described in Example A

SMILES	IC50 [nM]
Cn1ncc2c1C1Cc3[nH]ncc3C2N1S(=O)(=O)c1ccc(C(F)(F)F)nc1 (racemic) [compound 204]	< 100
O=S(=O)(c1ccc(C(F)(F)F)nc1)N1C2Cc3[nH]ncc3C1c1ncc(F)cc12 (racemic) [compound 258]	< 100
O=S(=O)(c1ccc(C(F)(F)F)cc1)N1C2Cc3n[nH]cc3C1c1c(F)cccc12 (single isomer, unassigned) [compound 114]	500 to 999
O=S(=O)(c1ccc(C(F)(F)F)cc1)N1C2Cc3n[nH]cc3C1c1c(F)cccc12 (single isomer, unassigned) [compound 115]	< 100
